Patent publication US5216124A, “Substituted cyclic tetrapeptides” (G. D. Searle & Co., priority 1991, dated 1993)
Counter-ions that a name gives are not always drawn. Positions of bridges follow the written chain, without caps; N, C: chain ends. Non-standard residues stand in square brackets, D forms with d. Residues, ends and D or L forms follow the SMILES beside them. Phe(4-F) = N[C@@H](Cc1ccc(F)cc1)C(=O)O; Dmt = Cc1cc(O)cc(C)c1C[C@H](N)C(=O)O; NMeCha = CN[C@@H](CC1CCCCC1)C(=O)O; NMeF = CN[C@@H](Cc1ccccc1)C(=O)O; 2Thi = N[C@@H](Cc1cccs1)C(=O)O; Cha = N[C@@H](CC1CCCCC1)C(=O)O; dPen = CC(C)(S)[C@@H](N)C(=O)O

Legend:
[1] = test system: CD Charles River mice; assay: Writhing Assay (PBQ-induced writhing); format: in vivo, mouse; settings: for number of mice out of ten in which peptide was active, Intragastric: 10 mg/kg i.g., PBQ i.p. 15 min after dosing; for number of mice out of ten in which peptide was active, Subcutaneous: 10 mg/kg s.c., PBQ i.p. 25 min after dosing
Source text: The "Writhing Assay" is one of the most widely-used experimental procedures for measuring the analgesic activity of different narcotic and nonnarcotic analgesic agents, and involves the continuous, chemically-induced pain of visceral origin to an animal, such as a mouse or rat. [Gyires et al., Arch. int. Pharmacodyn, 267, 131-140 (1984); C. Vander Wende et al., Fed. Proc., 15, 494 (1956); Koster et al., Fed. Proc., 18, 412 (1959); and Witken et al., J. Pharmacol. Exp. Ther., 133, 400-408 (1961). ] Chemicals which may be used to induce this pain include phenylbenzoquinone (PBQ) and acetic acid. As a result of the chemical irritation to the animal, a characteristic stretching and writhing of the animal (dorsiflexion of the animal's back, extension of its hindlimbs an the strong contraction of its abdominal musculature) will generally occur. […] Drugs which reduce the number of writhes of the animal appear to restore the normal nociceptive threshold of the animal.
This assay was conducted generally in the manner described by R. I. Taber, "Predictive Value of Analgesic Assays in Mice and Rats,"Advances in Biochemical Psychopharmacology, 8, 191 (1974). The Methyl Ester Tetrapeptide and Test Tetrapeptides Nos. 1, 3, 4, 5, 6, 7, 8 and 9 were tested in this assay.
Two hundred CD Charles River mice, weighing 20 to 30 grams were used in this assay.
Twenty-five minutes after subcutaneous administration, and fifteen minutes after intragastric administration, to the mice of 10 mg per kilogram of body weight of either a Test Tetrapeptide or the Methyl Ester Tetrapeptide, […] of body weight of a 0.025% w/v solution of PBQ was injected intraperitoneally into each mouse. Some mice were given saline in place of a Test Tetrapeptide or the Methyl Ester Tetrapeptide, and were used as a control group.
Five minutes later, each mouse was individually placed into a glass beaker for observation, and the number of writhes occurring during the following ten-minute period was counted.
A tetrapeptide compound was considered to be "active" (to have produced analgesia in a mouse) if, in accordance with the conditions set forth above, and under the test criteria employed for this assay, after the administration of 10 mg per kilogram of body weight of the tetrapeptide to the mouse, the number of writhes elicited by a mouse injected with PBQ was equal to, or less than, one-half the median number of writhes recorded for the saline-treated control group of mice that day, as described by R. I. Taber, supra.
The standard initial screening dose of a compound employed in this assay was 10 mg per kilogram (mpk) of body weight for both routes of administration. If this initial screening dose of the tetrapeptide produced analgesia in seven of ten mice, then the effect of additional doses of the tetrapeptide on the writhing response was evaluated, and then the ED50 value (that dose of a Test Tetrapeptide or the Methyl Ester Tetrapeptide which produced analgesia in 50% of the mice to which the tetrapeptide was administered) was generally calculated. A maximum likelihood function was used to determine the ED50 value. (The slopes of the dose-response curves for all tetrapeptides analyzed were compared as described by Tallarida and Murray, Manual of Pharmacologic Calculations, Page 11 (Springer Verlag, N.Y., 1981)).

[2] = molecular target: δ opioid receptors (Rattus norvegicus, UniProt P33533); assay: Opiate Binding Assay, displacement of 3[H]-DSLET; settings: ratio of mean IC50 μ to δ, above 1.0 = more specific for δ
δ opioid receptors, sequence (P33533 whole entry): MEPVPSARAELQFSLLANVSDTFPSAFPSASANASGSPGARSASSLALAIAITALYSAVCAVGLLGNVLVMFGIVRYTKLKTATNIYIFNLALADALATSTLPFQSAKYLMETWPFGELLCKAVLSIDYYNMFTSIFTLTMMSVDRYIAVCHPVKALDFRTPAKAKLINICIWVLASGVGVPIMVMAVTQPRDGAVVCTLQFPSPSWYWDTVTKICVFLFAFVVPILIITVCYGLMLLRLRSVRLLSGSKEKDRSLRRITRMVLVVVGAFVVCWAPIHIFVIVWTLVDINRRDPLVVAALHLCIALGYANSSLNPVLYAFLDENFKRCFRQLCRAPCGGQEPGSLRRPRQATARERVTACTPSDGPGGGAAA

SMILES | number of mice out of ten in which peptide was active, Intragastric [1] | number of mice out of ten in which peptide was active, Subcutaneous [1] | Mean IC50 Value μ/δ Ratio [2] | Mean IC50 Value μ/δ Ratio ([2]; monohydrochloride) | also measured
COC(=O)[C@@H]1NC(=O)[C@H](Cc2ccc(F)cc2)NC(=O)[C@H](NC(=O)[C@@H](N)Cc2c(C)cc(O)cc2C)CSSC1(C)C [Example 67, 2,6-dimethyl-L-tyrosyl-D-cysteinyl-4-fluoro-L-phenylalanyl-3-mercapto-D-valine, cyclic (2→4)-disulfide, methyl ester, monohydrochloride] (H-[Dmt][dC][Phe(4-F)][dPen]-OMe; disulfide 2-4) | 1/10 | 2/10 | 2.4 |  | 
COC(=O)[C@@H]1NC(=O)[C@H](Cc2cccs2)NC(=O)[C@H](NC(=O)[C@@H](N)Cc2c(C)cc(O)cc2C)CSSC1(C)C [Example 60, 2,6-dimethyl-L-tyrosyl-D-cysteinyl-3-(2-thienyl)-L-alanyl-3-mercapto-D-valine, cyclic (2→4)-disulfide, methyl ester, monohydrochloride] (H-[Dmt][dC][2Thi][dPen]-OMe; disulfide 2-4) |  |  | 1.4 |  | 
COC(=O)[C@@H]1NC(=O)[C@H](CC2CCCCC2)NC(=O)[C@H](NC(=O)[C@@H](N)Cc2c(C)cc(O)cc2C)CSSC1(C)C [Example 46, 2,6-dimethyl-L-tyrosyl-D-cysteinyl-3-cyclohexyl-L-alanyl-3-mercapto-D-valine, cyclic (2→4)-disulfide, methyl ester, monohydrochloride] (H-[Dmt][dC][Cha][dPen]-OMe; disulfide 2-4) | 4/10 | 5/10 | 0.6 |  | 
Cc1cc(O)c(C)c(C)c1CC(N)C(=O)N[C@@H]1CSSC(C)(C)[C@H](C(=O)O)NC(=O)[C@H](Cc2ccccc2)NC1=O (single isomer, unassigned) [Example 82 (Diastereomer B), 2,3,6-trimethyltyrosyl-D-cysteinyl-L-phenylalanyl-3-mercapto-D-valine, cyclic (2→4)-disulfide, monohydrochloride] |  |  | 81 |  | 
Cc1ccc(CC(N)C(=O)N[C@@H]2CSSC(C)(C)[C@H](C(=O)O)NC(=O)[C@H](Cc3ccccc3)NC2=O)c(C)c1O (single isomer, unassigned) [Example 81 (Diastereomer A), 3-hydroxy-2,4-dimethylphenylalanyl-D-cysteinyl-L-phenylalanyl-3-mercapto-D-valine, cyclic (2→4)-disulfide, monohydrochloride] |  |  |  | 0.1 | 
COC(=O)[C@@H]1NC(=O)[C@H](Cc2ccccc2)N(C)C(=O)[C@H](NC(=O)[C@@H](N)Cc2c(C)cc(O)cc2C)CSSC1(C)C [Example 39, 2,6-dimethyl-L-tyrosyl-D-cysteinyl-N-methyl-L-phenylalanyl-3-mercapto-D-valine, cyclic (2→4)-disulfide, methyl ester, monohydrochloride] (H-[Dmt][dC][NMeF][dPen]-OMe; disulfide 2-4) | 5/10 | 4/10 | 6.0 |  | 
COC(=O)[C@@H]1NC(=O)[C@H](Cc2ccccc2)NC(=O)C(NC(=O)[C@@H](N)Cc2c(C)cc(O)cc2C)CCSSC1(C)C (single isomer, unassigned) [Example 73, 2,6-dimethyl-L-tyrosylhomocysteinyl-L-phenylalanyl-3-mercapto-D-valine, cyclic (2→4)-disulfide, methyl ester, monohydrochloride] |  | 6/10 |  | 0.10 | number of mice out of ten in which peptide was active, Intragastric ([1]; listed as Test Tetrapeptide No. 5, monohydrochloride, 10 mg/kg): 5/10
COC(=O)[C@@H]1NC(=O)[C@H](CC2CCCCC2)N(C)C(=O)[C@H](NC(=O)[C@@H](N)Cc2c(C)cc(O)cc2C)CSSC1(C)C [Example 53, 2,6-dimethyl-L-tyrosyl-D-cysteinyl-3-cyclohexyl-N-methyl-L-alanyl-3-mercapto-D-valine, cyclic (2→4)-disulfide, methyl ester, monohydrochloride] (H-[Dmt][dC][NMeCha][dPen]-OMe; disulfide 2-4) | 3/10 | 3/10 | 12 |  | 
Cc1ccc(CC(N)C(=O)N[C@@H]2CSSC(C)(C)[C@H](C(=O)O)NC(=O)[C@H](Cc3ccccc3)NC2=O)c(C)c1O (single isomer, unassigned) [Example 81 (Diastereomer B), 3-hydroxy-2,4-dimethylphenylalanyl-D-cysteinyl-L-phenylalanyl-3-mercapto-D-valine, cyclic (2→4)-disulfide, monohydrochloride] |  |  |  | 19 | 
Cc1cc(O)ccc1CC(N)C(=O)N[C@@H]1CSSC(C)(C)[C@H](C(=O)O)NC(=O)[C@H](Cc2ccccc2)NC1=O (single isomer, unassigned) [Example 5 (Diastereomer A)] |  |  | 48 |  | 
Cc1cc(O)ccc1CC(N)C(=O)N[C@@H]1CSSC(C)(C)[C@H](C(=O)O)NC(=O)[C@H](Cc2ccccc2)NC1=O (single isomer, unassigned) [Example 5 (Diastereomer B)] |  |  | 15 |  | 
COC(=O)[C@@H]1NC(=O)[C@H](Cc2ccccc2)NC(=O)C(NC(=O)[C@@H](N)Cc2c(C)cc(O)cc2C)CCSSC1(C)C (single isomer, unassigned) [Example 72, 2,6-dimethyl-L-tyrosylhomocysteinyl-L-phenylalanyl-3-mercapto-D-valine, cyclic (2→4)-disulfide, methyl ester, monohydrochloride] |  | 6/10 |  | 0.4 | number of mice out of ten in which peptide was active, Intragastric ([1]; listed as Test Tetrapeptide No. 4, monohydrochloride, 10 mg/kg): 1/10
